Data on one compound can be found in paper PMC6934184, “Selective DNA-PKcs inhibition extends the therapeutic index of localized radiotherapy and chemotherapy” (The Journal of Clinical Investigation, 2019).

The test addresses T1, SLK (Homo sapiens, UniProt Q9H2G2).
T1 construct: purchased Thermo Fisher Scientific (Life Technologies) SelectScreen
Description: SelectScreen LanthaScreen. It is filed as binding. As to conditions: read-out: % displacement. An outline of the steps: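 NU5455 was profiled across the SelectScreen Broad panel of kinase activity and binding assays. Z'LYTE reactions such as CSF1R ran at apparent Km ATP, while the Adapta CAMK1 assay used ATP listed as 10. Values are given as percent.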

T1 sequence (Q9H2G2 whole entry): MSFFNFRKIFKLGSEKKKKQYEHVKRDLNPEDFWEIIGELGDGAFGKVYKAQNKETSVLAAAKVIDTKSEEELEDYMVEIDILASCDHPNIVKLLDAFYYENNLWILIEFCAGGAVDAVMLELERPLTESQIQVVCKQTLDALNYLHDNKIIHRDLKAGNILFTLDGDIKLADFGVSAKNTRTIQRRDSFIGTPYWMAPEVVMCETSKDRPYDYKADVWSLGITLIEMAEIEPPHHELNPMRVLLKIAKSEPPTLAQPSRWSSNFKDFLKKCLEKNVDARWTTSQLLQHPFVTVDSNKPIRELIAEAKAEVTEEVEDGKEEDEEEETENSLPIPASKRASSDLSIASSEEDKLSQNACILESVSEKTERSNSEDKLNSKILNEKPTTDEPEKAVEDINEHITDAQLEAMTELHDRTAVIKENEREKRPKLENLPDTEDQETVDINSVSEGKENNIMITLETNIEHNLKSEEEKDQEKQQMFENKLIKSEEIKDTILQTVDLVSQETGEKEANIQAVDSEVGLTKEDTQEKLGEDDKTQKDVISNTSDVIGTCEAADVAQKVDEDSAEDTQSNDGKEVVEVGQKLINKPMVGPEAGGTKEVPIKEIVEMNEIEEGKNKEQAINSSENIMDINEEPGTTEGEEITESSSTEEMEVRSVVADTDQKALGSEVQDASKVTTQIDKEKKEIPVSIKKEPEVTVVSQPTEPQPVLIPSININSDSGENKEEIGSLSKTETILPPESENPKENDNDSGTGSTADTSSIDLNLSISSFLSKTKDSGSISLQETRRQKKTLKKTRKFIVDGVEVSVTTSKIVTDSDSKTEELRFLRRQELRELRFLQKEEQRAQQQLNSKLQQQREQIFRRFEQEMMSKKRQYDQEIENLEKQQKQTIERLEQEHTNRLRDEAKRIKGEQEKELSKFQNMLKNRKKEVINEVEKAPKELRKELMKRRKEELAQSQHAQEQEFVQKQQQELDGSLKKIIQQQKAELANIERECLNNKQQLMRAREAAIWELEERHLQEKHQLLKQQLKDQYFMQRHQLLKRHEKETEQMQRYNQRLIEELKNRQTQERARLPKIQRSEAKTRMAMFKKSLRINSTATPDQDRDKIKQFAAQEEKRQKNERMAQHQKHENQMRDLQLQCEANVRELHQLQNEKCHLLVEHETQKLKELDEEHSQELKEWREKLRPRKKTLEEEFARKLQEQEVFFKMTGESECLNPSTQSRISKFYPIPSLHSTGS

For `CN(C(=O)CN1CCOCC1)c1ccc2sc3c(-c4cccc5c(=O)cc(N6CC7CCC(C6)O7)oc45)cccc3c2c1` [NU5455], the inhibition at 1 µM came to 1.5%.
